Results published in patent US8703197B2, “Branched polyamines for delivery of biologically active materials” (International Business Machines Corporation, priority 2012, dated 2014).

System: HeLa cells
Assay: MTT cytotoxicity of polymer/gene complexes in HeLa cells
Assay type: cell-based, human
Method: The cytotoxicity of the modified bPEI-25/gene complexes and modified bPEI-25/siRNA complexes was studied using the standard MTT assay protocol on HepG2, HeLa and SK-OV-3 cells. The GFP plasmid was used for complex formation and treatment of HepG2 and HeLa cells, while the luciferase plasmid was used for complex formation and treatment of SK-OV-3 cells.
HepG2, HeLa and SK-OV-3 cells were seeded onto 96-well plates at densities of 10000 cells, 5000 and 16000 cells per well, respectively, and allowed to grow to 60% to 70% confluency before treatment. Polymer/gene or polymer/siRNA complexes at various N/P ratios were prepared in water as described above. The cells in each well were then incubated with growth medium comprising 10 microliters of polymer/nucleic acid complexes and 100 microliters of fresh medium for 4 hours at 37° C. Following incubation, the medium was replaced with fresh growth medium and incubated further for 68 hours. […] A 100 microliter aliquot from each well was then transferred to a new 96-well plate for determination of absorbance using a microplate spectrophotometer at wavelengths of 550 nm and 690 nm. Relative cell viability was expressed as [A550−A690)sample/(A550−A690)control]×100%. Data were expressed as mean±standard deviations of at least eight replicates per N/P ratio.

## Branched Polyethylenimine [bPEI-25]
  Maximum N/P ratio for Cell Viability ≧80%, HeLa Max N/P: 20
